Experimental data taken from patent publication US8759366B2, “Aminopyrimidines as SYK inhibitors” (Merck Sharp & Dohme Corp., priority 2009, dated 2014).
Counter-ions that a name gives are not always drawn.

Target: rhSYK (Homo sapiens (Human), UniProt P43405)
Conditions: read-out: rhSYK activity

IC50	SMILES
< 100 nM	COC1(c2ncc(-c3cc(C)cc(Nc4nccc(C(F)(F)F)n4)c3)s2)CCC(C(=O)O)CC1 (stereo not drawn) [Example 40(1), 2-({3-[2-(cis-4-Carboxy-1-methoxycyclohexyl)-1,3-thiazol-5-yl]-5-methylphenyl}amino)-4-(trifluoromethyl)pyrimidin-1-ium trifluoroacetate]
< 100 nM	CC(C)(O)c1ncc(-c2cc(Nc3nccc(C(F)(F)F)n3)cc(C3CC3)c2)s1 [Example 31, 2-[5-(3-cyclopropyl-5-{[4-(trifluoromethyl)pyrimidin-2-yl]amino}phenyl)-1,3-thiazol-2-yl]propan-2-ol]
< 100 nM	Cc1cc(Nc2nccc(C)n2)cc(-c2cnc([C@]3(O)[C@@H]4CC5C[C@@H]3C[C@](C(=O)O)(C5)C4)s2)c1 [Example 4B-31]
< 100 nM	COc1ccnc(Nc2cc(C)cc(-c3cnc(C4(O)CCC5(CC4)OCCO5)s3)c2)n1 [Example 4B-16]
< 100 nM	OC1(c2ncc(-c3cc(NCC(F)(F)F)cc(Nc4nccc(C(F)(F)F)n4)c3)s2)CCC1 [Example 27, 1-[5-(3-[(2,2,2-trifluoroethyl)amino]-5-{[4-(trifluoromethyl)pyrimidin-2-yl]amino}phenyl)-1,3-thiazol-2-yl]cyclobutanol]
100 to 1000 nM	CCOC(=O)C1CCC(c2ncc(-c3cc(C)cc(Nc4nccc(C(F)(F)F)n4)c3)s2)CC1 (stereo not shown) [Example 35, ethyl 4-[5-(3-methyl-5-{[4-(trifluoromethyl)pyrimidin-2-yl]amino}phenyl)-1,3-thiazol-2-yl]cyclohexanecarboxylate]
100 to 1000 nM	Cc1cc(Nc2nccc(C(F)(F)F)n2)cc(-c2cnc(C3(O)CCN(S(=O)(=O)c4ccccc4)CC3)s2)c1 [Example 50, 4-[5-(3-methyl-5-{[4-(trifluoromethyl)pyrimidin-2-yl]amino}phenyl)-1,3-thiazol-2-yl]-1-(phenylsulfonyl)piperidin-4-ol]
< 100 nM	Cc1cc(Nc2nccc(C(F)(F)F)n2)cc(-c2cnc([C@]3(F)CC[C@@H](C(=O)O)CC3)s2)c1 [Example 26, cis-4-Fluoro-4-[5-(3-methyl-5-{[4-(trifluoromethyl)pyrimidin-2-yl]amino}phenyl)-1,3-thiazol-2-yl]cyclohexanecarboxylic acid]
< 100 nM	Cc1cc(Nc2nccc(C(F)(F)F)n2)cc(-c2cnc(C3=CC(=O)NCCC3)s2)c1 [Example 10B-2]
< 100 nM	Cc1cc(Nc2nccc(C(F)(F)F)n2)cc(-c2cnc(C(C)(C)S(C)(=O)=O)s2)c1 [Example 73, N-(3-methyl-5-{2-[2-(methylsulfonyl)propan-2-yl]-1,3-thiazol-5-yl}phenyl)-4-(trifluoromethyl)pyrimidin-2-amine]
1000 to 10000 nM	Cc1cc(Nc2nccc(C(=O)O)n2)cc(-c2cnc(C(C)(O)C(F)(F)F)s2)c1 (stereo not shown) [Example 68, 2-({3-methyl-5-[2-(1,1,1-trifluoro-2-hydroxypropan-2-yl)-1,3-thiazol-5-yl]phenyl}amino)-pyrimidine-4-carboxylic acid]
< 100 nM	CC(=O)NC12CC3CC(C1)C(O)(c1ncc(-c4cc(C)cc(Nc5nccc(C(F)(F)F)n5)c4)s1)C(C3)C2 (stereo not shown) [Example 4B-51]
< 100 nM	Cc1cc(Nc2ncc(F)c(C)n2)cc(-c2cncs2)c1 [Intermediate 49, 5-Fluoro-4-methyl-N-[3-methyl-5-(1,3-thiazol-5-yl)phenyl]pyrimidin-2-amine]
< 100 nM	CC(=O)Nc1cc(Nc2nccc(C(F)(F)F)n2)cc(-c2cnc(C(C)(C)S(N)(=O)=O)s2)c1 [Example 72, N-(3-[2-(2-sulfamoylpropan-2-yl)-1,3-thiazol-5-yl]-5-{[4-(trifluoromethyl)pyrimidin-2-yl]amino}phenyl)acetamide]
< 100 nM	OC(c1ncc(-c2cccc(Nc3nccc(C(F)(F)F)n3)c2)s1)(C1CC1)C(F)(F)F (stereo not shown) [Example 12, 1-Cyclopropyl-2,2,2-trifluoro-1-[5-(3-{[4-(trifluoromethyl)pyrimidin-2-yl]amino}phenyl)-1,3-thiazol-2-yl]ethanol]
< 100 nM	C#Cc1cc(Nc2nccc(C(F)(F)F)n2)cc(-c2cnc(C(C)(C)O)s2)c1 [Example 29, 2-[5-(3-ethynyl-5-{[4-(trifluoromethyl)pyrimidin-2-yl]amino}phenyl)-1,3-thiazol-2-yl]propan-2-ol]
100 to 1000 nM	Cc1cc(Nc2nccc(C(F)(F)F)n2)cc(-c2cnc(C3(O)CCN(c4ccccc4C)CC3)s2)c1 [4D-9]
< 100 nM	Cc1cc(Nc2ncc(Cl)c(C)n2)cc(-c2cnc(C(C)(O)CO)s2)c1 (stereo not shown) [Ex 5-14]
< 100 nM	Cc1cc(Nc2nccc(C)n2)cc(-c2cnc(C3(O)CCC(CN)CC3)s2)c1 (stereo not shown) [Example 4C-3]
< 100 nM	Cc1cc(Nc2nccc(C(F)(F)F)n2)cc(-c2cnc([C@]3(O)CC[C@@H](c4n[nH]c(=O)o4)CC3)s2)c1 [Example 55, 5-{cis-4-hydroxy-4-[5-(3-methyl-5-{[4-(trifluoromethyl)pyrimidin-2-yl]amino}phenyl)-1,3-thiazol-2-yl]cyclohexyl}-1,3,4-oxadiazol-2(3H)-one]
< 100 nM	CC(O)(CO)c1ncc(-c2cccc(Nc3nccc(C(F)(F)F)n3)c2)s1 (single isomer, unassigned) [Ex 5-3]
< 100 nM	Cc1cc(Nc2ncc(F)c(C3CC3)n2)cc(-c2cnc(C(O)(CO)C(F)(F)F)s2)c1 (stereo not shown) [Example 58, 2-(5-{3-[(4-cyclopropyl-5-fluoropyrimidin-2-yl)amino]-5-methylphenyl}-1,3-thiazol-2-yl)-3,3,3-trifluoropropane-1,2-diol]
< 100 nM	COc1nc(Nc2cc(C)cc(-c3cnc(C(C)(O)CO)s3)c2)ncc1Cl (stereo not shown) [Ex 5-19]

IC50	SMILES
< 100 nM	Cc1cc(Nc2nccc(C(F)(F)F)n2)cc(-c2cnc(C3(O)CC4(O)CCC3(C)CC4)s2)c1 (stereo not shown) [Example 4B-41]
< 100 nM	Cc1cc(Nc2nccc(C(C)C)n2)cc(-c2cnc(C3(O)CCC3)s2)c1 [Example 56, 1-[5-(3-methyl-5-{[4-(propan-2-yl)pyrimidin-2-yl]amino}phenyl)-1,3-thiazol-2-yl]cyclobutanol HCl salt]
< 100 nM	COc1ccnc(Nc2cc(C)cc(-c3cnc(C4(Cl)CCN(S(N)(=O)=O)CC4)s3)c2)n1 [54(2), 4-Chloro-4-(5-{3-[(4-methoxypyrimidin-2-yl)amino]-5-methylphenyl}-1,3-thiazol-2-yl)-piperidine-1-sulfonamide]
< 100 nM	Cc1cc(Nc2nccc(C(F)(F)F)n2)cc(-c2cnc(C(O)C(F)(F)F)s2)c1 (single isomer, unassigned) [Example 6-3]
< 100 nM	Cc1cc(Nc2nccc(C)n2)cc(-c2cnc([C@]3(O)[C@H]4CC5C[C@H]3C[C@](C(=O)O)(C5)C4)s2)c1 [Example 4B-30]
< 100 nM	Cc1cc(Nc2nccc(C(F)(F)F)n2)cc(-c2cnc(C3(O)CCCC4CC43)s2)c1 (stereo not shown) [Example 4B-18]
< 100 nM	Cc1cc(Nc2nccc(C(F)(F)F)n2)cc(-c2cnc(C3(O)CCC(N)(C(=O)O)CC3)s2)c1 (stereo not shown) [Example 41, 1-amino-4-hydroxy-4-[5-(3-methyl-5-{[4-(trifluoromethyl)pyrimidin-2-yl]amino}phenyl)-1,3-thiazol-2-yl]cyclohexanecarboxylic acid]
< 100 nM	OC1(c2ncc(-c3cccc(Nc4nccc(C(F)(F)F)n4)c3)s2)CCCCCC1 [Example 4C-1]
< 100 nM	Cc1cc(Nc2nccc(C(F)(F)F)n2)cc(-c2cnc(C3(O)CCN(C(=O)CCCC(=O)O)CC3)s2)c1 [4D-13]
< 100 nM	Cc1cc(Nc2nccc(C(F)(F)F)n2)cc(-c2cnc(C3(O)CCCC(=O)C3(C)C)s2)c1 (stereo not shown) [Example 8B-1]
< 100 nM	CC(O)(CO)c1ncc(-c2cccc(Nc3nccc(C(F)(F)F)n3)c2)s1 (single isomer, unassigned) [Ex 5-2]
< 100 nM	CC(=O)NS(=O)(=O)C1(c2ncc(-c3cc(C)cc(Nc4nccc(C(F)(F)F)n4)c3)s2)CCC1 [Example 74, N-({1-[5-(3-methyl-5-{[4-(trifluoromethyl)pyrimidin-2-yl]amino}phenyl)-1,3-thiazol-2-yl]-cyclobutyl}sulfonyl)acetamide]
< 100 nM	Cc1cc(Nc2nccc(C(F)(F)F)n2)cc(-c2cnc(C3(O)CCN(S(=O)(=O)NC(=O)OC(C)(C)C)CC3)s2)c1 [Example 48, tert-butyl({4-hydroxy-4-[5-(3-methyl-5-{[4-(trifluoromethyl)pyrimidin-2-yl]amino}phenyl)-1,3-thiazol-2-yl]piperidin-1-yl}sulfonyl)carbamate]
< 100 nM	Cc1cc(Nc2nccc(C)n2)cc(-c2cnc(C3(O)CCC(N)(C(=O)O)CC3)s2)c1 (stereo not shown) [Example 4C-10]
< 100 nM	OC(c1ncc(-c2cccc(Nc3nccc(C(F)(F)F)n3)c2)s1)(C(F)(F)F)C(F)(F)F [Example 4A-3]
< 100 nM	Cc1cc(Nc2nccc(C(F)(F)F)n2)cc(-c2cnc(C3(O)C4CC5CC(C4)C(C(=O)O)C3C5)s2)c1 (stereo not shown) [Example 4B-43]
100 to 1000 nM	OCCC(O)(CCO)c1ncc(-c2cccc(Nc3nccc(C(F)(F)F)n3)c2)s1 [Example 5, 3-[5-(3-{[4-(trifluoromethyl)pyrimidin-2-yl]amino}phenyl)-1,3-thiazol-2-yl]pentane-1,3,5-triol]
< 100 nM	Cc1cc(Nc2nccc(C(F)(F)F)n2)cc(-c2cnc(C3(C(N)=O)CCC(N)CC3)s2)c1 (stereo not drawn) [molecule A, cis-4-amino-1-[5-(3-methyl-5-{[4-(trifluoromethyl)pyrimidin-2-yl]amino}phenyl)-1,3-thiazol-2-yl]cyclohexanecarboxamide]
100 to 1000 nM	CSc1ccc(C(C)(O)c2ncc(-c3cc(C)cc(Nc4nccc(C(F)(F)F)n4)c3)s2)cc1 (stereo not shown) [Example 4A-57, 1-[4-(methylsulfanyl)phenyl]-1-[5-(3-methyl-5-{[4-(trifluoromethyl)pyrimidin-2-yl]amino}phenyl)-1,3-thiazol-2-yl]ethanol]
< 100 nM	CC(=O)N1CCC(O)(c2ncc(-c3cccc(Nc4nccc(C(F)(F)F)n4)c3)s2)CC1 [4D-1]
< 100 nM	Cc1cc(Nc2nccc(C(F)(F)F)n2)cc(-c2cnc(C3(O)C4CC5C(C4C(=O)O)C53)s2)c1 (stereo not shown) [Example 4B-36]
< 100 nM	Cc1cc(Nc2nccc(C(F)(F)F)n2)cc(-c2cncs2)c1 [Intermediate 4, N-[3-methyl-5-(1,3-thiazol-5-yl)phenyl]-4-(trifluoromethyl)pyrimidin-2-amine]
< 100 nM	Cc1cc(Nc2nccc(C(F)(F)F)n2)cc(-c2cnc(C3(O)COC3)s2)c1 [Example 4B-12]
